What was measured:
[1] = Selectivity ratio of IC50 for rat L6 cells to IC50 for […]; type: ADME, cell-based; settings: read-out: Ratio IC50
Plasmodium falciparum [2] = assay: Antiplasmodial activity against chloroquine-resistant Plasmodium falciparum K1 assessed as [3H]hypoxanthine incorporation after 24 hrs by scintillation counting; type: functional, organism-based
L6 = assay: Cytotoxicity against rat L6 cells after 72 hrs by alamar blue assay; type: cell-based; settings: L6, 72 h
Plasmodium falciparum [3] = assay: Antiplasmodial activity against chloroquine-resistant Plasmodium falciparum W2 infected in human erythrocytes after 48 hrs by Geimsa staining; type: functional, organism-based; settings: W2, 48 h
Plasmodium falciparum [4] = assay: Resistance ratio of IC50 for chloroquine-resistance Plasmodium falciparum K1 to IC50 for […]; type: functional

SMILES | selectivity ratio [1] | IC50 (Plasmodium falciparum [2]) [nM] | IC50 (L6) [nM] | IC50 (Plasmodium falciparum [3]) [nM] | Ratio IC50 (Plasmodium falciparum [4])
CCN(CC)CCNc1nc2cc(Nc3ccnc4cc(Cl)ccc34)ccc2[nH]1 | 76.4 | 827 | 15300 | 200 | 
Clc1ccc2c(Nc3ccc4sc(NCCN5CCCC5)nc4c3)ccnc2c1 | 426 | 14 | 5120 | 12 | 1.2
CCN(CC)Cc1cc(Nc2ccnc3cc(Cl)ccc23)ccc1O |  | 8 |  | 5 | 
Clc1ccc2c(Nc3ccc4oc(NCCN5CCCC5)nc4c3)ccnc2c1 | 1090 | 22 | 8700 | 8 | 2.8
CCNc1nc2cc(Nc3ccnc4cc(Cl)ccc34)ccc2o1 | 33.3 | 921 | 16400 | 491 | 
Clc1ccc2c(Nc3ccc(NCCN4CCCC4)nc3)ccnc2c1 | 885 | 92 | 18600 | 21 | 4.4
CCN(CC)CCNc1nc2cc(Nc3ccnc4cc(Cl)ccc34)ccc2s1 |  |  |  | 11 | 
Clc1ccc2c(Nc3ccc4[nH]c(NCCN5CCCCC5)nc4c3)ccnc2c1 | 1.15 | 90 | 5250 | 4580 | 
Clc1ccc2c(Nc3ccc4sc(NCCN5CCOCC5)nc4c3)ccnc2c1 | 117 | 25 | 4670 | 40 | 
CCNc1nc2cc(Nc3ccnc4cc(Cl)ccc34)ccc2[nH]1 | 11.4 | 249 | 5710 | 501 | 
Clc1ccc2c(Nc3ccc(NCCN4CCOCC4)nc3)ccnc2c1 | 1160 | 73 | 47400 | 41 | 
Clc1ccc2c(Nc3ccc4sc(NCCN5CCCCC5)nc4c3)ccnc2c1 | 272 | 7 | 3540 | 13 | 
CC(C)(C)Nc1nc2cc(Nc3ccnc4cc(Cl)ccc34)ccc2s1 | 3.56 | 917 | 4130 | 1160 | 

Source: ChEMBL document CHEMBL2057124, “Benzoheterocyclic amodiaquine analogues with potent antiplasmodial activity: synthesis and pharmacological evaluation” (Bioorg Med Chem Lett, 2012)
